Source: BigSolDB 2.1

Cc1c([N+](=O)[O-])c(C)c([N+](=O)[O-])c(C(C)(C)C)c1[N+](=O)[O-]
solubility (mole fraction)
Settings	in DMAc	in THF	in cyclohexane	in ethanol	in ethyl acetate	in isopropanol	in methanol	in n-butanol	in n-heptane	in n-hexane
278.15 K	0.0918	0.0786	0.00467	0.00168	0.0953	0.00128	0.00185	0.00245	0.00262	0.00225
283.15 K	0.112	0.0889	0.00588	0.00207	0.115	0.00165	0.00234	0.00308	0.00321	0.00284
288.15 K	0.134	0.1	0.00739	0.00254	0.136	0.00211	0.00295	0.00374	0.00402	0.00359
293.15 K	0.156	0.112	0.00925	0.00311	0.158	0.00269	0.00369	0.0045	0.00496	0.00437
298.15 K	0.179	0.126	0.0116	0.00378	0.182	0.00343	0.00459	0.00553	0.00609	0.00557
303.15 K	0.205	0.139	0.0145	0.00458	0.207	0.00437	0.00569	0.00666	0.00752	0.00685
308.15 K	0.232	0.156	0.0182	0.00552	0.233	0.00557	0.00704	0.00806	0.00931	0.00842
313.15 K	0.263	0.173	0.0229	0.00663	0.262	0.00713	0.00868	0.00974	0.0114	0.0104
